Values joined by “and” are separate entries in the source; they are usually repeats but may differ in a detail not shown here. Equal entries are not always repeated. Where two headings read alike, the source gives them in different places.
Assays:
human CB1 receptor = biological target: T1, human CB1 receptor (Homo sapiens, UniProt P21554); assay: [35S]GTPγS binding assay in membranes of CB1 expressing cells; type: biochemical; details: for EC50: mean±SEM; for Emax: read-out: CB1 % CP Stim
T1 construct: expressed in transfected cells; b94 says CHO for CB1
Procedure: (§1) For the in vivo studies, the drugs were dissolved in either saline or emulphor:ethanol:saline (E:E:S) as indicated.
cLogP calculations. Absolute solubility determinations were not performed. Rather, cLogP calculations were performed using the CS ChemDraw Ultra software (Cambridge Soft Corporation, Cambridge, Mass.). Receptor Binding. HEK-293 cells stably expressing the human CB1 receptor were cultured in DMEM with 10% FBS and Chinese Hamster Ovary (CHO) cells stably expressing the human CB2 receptor were cultured in DMEM with 10% FCS. Cells were harvested by replacement of the media with cold phosphate-buffered saline containing 1 mM EDTA followed by centrifugation at 1000×g for 5 min at 4° C. The pellet was resuspended in 50 mM Tris-HCl containing 320 mM sucrose, 2 mM EDTA and 5 mM MgCl2 (pH 7.4) (centrifugation buffer), then centrifuged at 1000×g for 10 min at 4° C., and the resulting supernatant was saved. This process was repeated twice. The supernatant fractions were combined and centrifuged at 40,000×g for 30 min at 4° C. The resulting P2 pellet was resuspended in assay buffer (50 mM Tris-HCl (pH 7.4), 3 mM MgCl2, 0.2 mM EGTA, and 100 mM NaCl) and protein was determined by the method of Bradford ENRfu(Bradford 1976). Membranes were stored at −80° C. until use. […] The assay was incubated at 30° C. for 1 hr and terminated by addition of ice cold 50 mM Tris-HCl plus BSA (1 mg/ml) (pH 7.4) followed by filtration under vacuum through Whatman GF/B glass fiber filters with 3 washes with cold Tris buffer. Bound radioactivity was determined by liquid scintillation spectrophotometry at 50% efficiency after extraction by shaking samples for 30-60 min with Budget-Solve scintillation fluid. Data are reported as the mean±SEM of three experiments, each performed in triplicate. Ki values were calculated from displacement data using EBDA (Equilibrium Binding Data Analysis; BIOSOFT, Milltown, N.J.). [^35S]GTPγS Binding Assays. Concentration-effect curves were generated by incubating membranes (10 μg prepared from CB1 expressing cells as described above) in assay buffer containing BSA (1 mg/ml) with various concentrations of test compounds in the presence of 20 μM GDP and 0.1 nM [^35S]GTPγS in a 1 ml total volume. […] Basal binding was assessed in the absence of agonist, and nonspecific binding was measured in the presence of 10 μM GTPγS. The reaction was incubated for 90 min at 30° C. and terminated by filtration under vacuum through Whatman GF/B glass fiber filters with 3 washes with cold (4° C.) Tris buffer (50 mM Tris-HCl, pH 7.4). Bound radioactivity was determined by liquid scintillation spectrophotometry at 95% efficiency after extraction overnight in ScintiSafe Econo 1 scintillation fluid. Data are reported as mean±SEM of three experiments, each performed in triplicate. Nonlinear regression analysis was conducted by iterative fitting using JMP (SAS for Macintosh). Net-stimulated [^35S]GTPγS binding is defined as [^35S]GTPγS binding in the presence of drug minus basal and percent stimulation is expressed as (net stimulated [^35S]GTPγS binding/basal)×100%. Behavioral Evaluations. All animals were allowed to acclimate to the observation room overnight. Behavioral effects were assessed in the tetrad model in order to measure potency in producing antinociception, catalepsy, hypothermia, and hypomobility. The baselines for tail-flick latency (2-4 seconds) and rectal temperature were determined prior to i.v. injections. Baseline rectal temperatures were measured using a telethermometer and a thermometer probe inserted to 25 mm (Yellow Springs Instrument Co., Yellow Springs, Ohio). The mice were then given either an i.v. i.c.v. injection of the analog. The mice were placed in individual photocell activity chambers 5 min later. Spontaneous activity was monitored for 10 min in a Digiscan Animal Activity Monitor (Omnitech Electronice, Inc., Columbus, Ohio) as measured by the number of interruptions of 16 photocell beams per chamber.

mice [1] = assay: Tail-flick antinociception (T.F.), mouse tetrad; type: in vivo; details: for ED50: Mus musculus, iv
[2] = Procedure: By “water-soluble” we mean that 1 mg of material in 1 ml of water gives a clear solution and is water miscible.
as §1

mice [3] = assay: Relative immobility (R.I.), ring-immobility test, mouse tetrad; type: in vivo; details: for ED50: Mus musculus, iv
mice [4] = assay: Rectal temperature (R.T.), mouse tetrad; type: in vivo; details: for ED50: Mus musculus, iv
[5] = maximal GTPγS binding as percentage of stimulation produced by CP 55,940
[6] = mice, i.v., vehicle E:E:S (1:1:18), read-out: T.F. ED50 (antinociception in the tail-flick procedure)
[7] = vehicle E:E:S (1:1:18), read-out: R.I. ED50 (relative immobility)
[8] = vehicle E:E:S (1:1:18), read-out: R.T. ED50 (lowering rectal temperature)
[9] = mice, i.v., vehicle saline, read-out: T.F. ED50 (antinociception in the tail-flick procedure)
[10] = vehicle saline, read-out: R.I. ED50 (relative immobility)
[11] = vehicle saline, read-out: R.T. ED50 (lowering rectal temperature)

T1 sequence (P21554 whole entry): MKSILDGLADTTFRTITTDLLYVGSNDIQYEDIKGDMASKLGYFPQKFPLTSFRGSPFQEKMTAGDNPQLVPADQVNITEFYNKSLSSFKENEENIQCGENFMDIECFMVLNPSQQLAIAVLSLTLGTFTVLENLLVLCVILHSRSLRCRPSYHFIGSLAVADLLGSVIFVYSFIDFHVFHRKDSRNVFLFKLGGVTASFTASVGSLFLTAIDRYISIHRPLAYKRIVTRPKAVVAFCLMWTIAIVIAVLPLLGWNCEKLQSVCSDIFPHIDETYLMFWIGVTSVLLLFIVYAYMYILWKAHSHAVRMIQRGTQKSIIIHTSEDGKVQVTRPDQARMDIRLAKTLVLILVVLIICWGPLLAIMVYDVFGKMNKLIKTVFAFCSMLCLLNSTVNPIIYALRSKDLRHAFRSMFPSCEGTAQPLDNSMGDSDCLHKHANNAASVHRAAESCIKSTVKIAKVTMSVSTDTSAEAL

Molecule: 1-(2-methyl-4-N-piperidinobutyryloxy) [O-2374]
- EC50 (human CB1 receptor; [35S]GTPγS binding, read-out: CB1 EC50): 16.5 ± 6.97 nM
- CB1 % CP Stim (human CB1 receptor; [5]): 80.9 ± 3.73%
- T.F. ED50 (antinociception in the tail-flick procedure) (mice [1]; mice, i.v., vehicle saline): 0.41 µmol/kg
- Solubility (water-soluble) ([2]; 1 mg of analog in 1 ml of water, visual observation): Yes
- R.I. ED50 (relative immobility) (mice [3]; i.v., vehicle saline): 0.57 µmol/kg
- R.T. ED50 (lowering rectal temperature) (mice [4]; i.v., vehicle saline): 0.72 µmol/kg

Molecule: CC1=CC[C@@H]2[C@@H](C1)c1c(O)cc(C(C)(C)CCCCC(N)=O)cc1OC2(C)C [O-2352, Carboxamido]
- EC50 (human CB1 receptor; CB1 EC50, [35S]GTPγS binding): 42 ± 4 nM
- Emax (human CB1 receptor; [5]): 95 ± 0.3%
- ED50 (mice [1]; [6]): 0.84 µmol/kg
- Solubility (water-soluble) [2]: No
- Water solubility of the hydrochloride salt [2]: none of the HCl salts was water-soluble
- ED50 (mice [3]; [7]): 0.93 µmol/kg
- ED50 (mice [4]; [8]): 1.72 µmol/kg

Molecule: CC1=CC[C@@H]2[C@@H](C1)c1c(O)cc(C(C)(C)CCCCC(=O)N3CCOCC3)cc1OC2(C)C [O-2372, Morpholino-carboxamido]
- EC50 (human CB1 receptor; CB1 EC50, [35S]GTPγS binding): 5.88 ± 0.42 nM
- Emax (human CB1 receptor; [5]): 120 ± 1.11%
- ED50 (mice [1]; [6]): 0.01 µmol/kg
- Solubility (water-soluble) [2]: No
- Water solubility of the hydrochloride salt [2]: none of the HCl salts was water-soluble
- ED50 (mice [3]; [7]): 0.03 µmol/kg
- ED50 (mice [4]; [8]): 0.07 µmol/kg

Molecule: CC1=CC[C@@H]2[C@@H](C1)c1c(O)cc(C(C)(C)CCCCC(=O)N3CCCCC3)cc1OC2(C)C [O-2373, Piperidino-carboxamido]
- EC50 (human CB1 receptor; CB1 EC50, [35S]GTPγS binding): 13.5 ± 1.81 nM
- Emax (human CB1 receptor; [5]): 119 ± 2.05%
- ED50 (mice [1]; [6]): 0.03 µmol/kg
- Solubility (water-soluble) [2]: No
- Water solubility of the hydrochloride salt [2]: none of the HCl salts was water-soluble
- ED50 (mice [3]; [7]): 0.04 µmol/kg
- ED50 (mice [4]; [8]): 0.03 µmol/kg

Molecule: CC1=CC[C@@H]2[C@@H](C1)c1c(O)cc(C(C)(C)CCCCC(=O)N3CCN(C)CC3)cc1OC2(C)C [O-2381, Methylepiperazino-carboxamido]
- ED50 (mice [1]; [6]): 34 µmol/kg
- Solubility (water-soluble) [2]: No
- ED50 (mice [3]; [7]): 183 µmol/kg
- ED50 (mice [4]; [8]): 51 µmol/kg

Molecule: CC1=CC[C@@H]2[C@@H](C1)c1c(O)cc(C(C)(C)CCCCC(=O)N3CCCC3)cc1OC2(C)C [O-2399, Pyrrolidino-carboxamido]
- EC50 (human CB1 receptor; CB1 EC50, [35S]GTPγS binding): 275 ± 87.9 nM
- Emax (human CB1 receptor; [5]): 117 ± 4.9%
- ED50 (mice [1]; [6]): 0.1 µmol/kg
- Solubility (water-soluble) [2]: No
- Water solubility of the hydrochloride salt [2]: none of the HCl salts was water-soluble
- ED50 (mice [3]; [7]): 0.15 µmol/kg
- ED50 (mice [4]; [8]): 0.23 µmol/kg

Molecule: CC1=CC[C@@H]2[C@@H](C1)c1c(O)cc(C(C)(C)CCCCC(=O)N3CCCCCC3)cc1OC2(C)C [O-2421, Homopiperidino-carboxamido]
- EC50 (human CB1 receptor; CB1 EC50, [35S]GTPγS binding): 23.2 ± 2.06 nM
- Emax (human CB1 receptor; [5]): 81.8 ± 8.96%
- ED50 (mice [1]; [6]): 0.16 µmol/kg
- Solubility (water-soluble) [2]: No
- ED50 (mice [3]; [7]): 0.86 µmol/kg
- ED50 (mice [4]; [8]): 0.44 µmol/kg

Molecule: CC1=CC[C@@H]2[C@@H](C1)c1c(O)cc(C(C)(C)CCCCC(=O)NN3CCCCCC3)cc1OC2(C)C [O-2489, N-(Homo-piperidin-1-yl)-carboxamido]
- EC50 (human CB1 receptor; CB1 EC50, [35S]GTPγS binding): 86.6 ± 17.4 nM
- Emax (human CB1 receptor; [5]): 112 ± 2.32%
- ED50 (mice [1]; [6]): 2.53 µmol/kg
- Solubility (water-soluble) [2]: No
- ED50 (mice [3]; [7]): 20.5 µmol/kg
- ED50 (mice [4]; [8]): 8.5 µmol/kg

Molecule: CNC(=O)CCCCC(C)(C)c1cc(O)c2c(c1)OC(C)(C)[C@@H]1CC=C(C)C[C@@H]21 [O-2490, N-(Methyl)carboxamido]
- EC50 (human CB1 receptor; CB1 EC50, [35S]GTPγS binding): 64.2 ± 10.6 nM
- Emax (human CB1 receptor; [5]): 92.7 ± 7.81%
- ED50 (mice [1]; [6]): 1.37 µmol/kg
- Solubility (water-soluble) [2]: No
- ED50 (mice [3]; [7]): > 2.5 µmol/kg
- ED50 (mice [4]; [8]): > 2.5 µmol/kg

Molecule: CC1=CC[C@@H]2[C@@H](C1)c1c(O)cc(C(C)(C)CCCCC(=O)NN3CCCC3)cc1OC2(C)C [O-2543, N-(Pyrrolidin-yl)-carboxamido]
- EC50 (human CB1 receptor; CB1 EC50, [35S]GTPγS binding): 81.1 ± 40 nM
- Emax (human CB1 receptor; [5]): 71.3 ± 4.23%
- ED50 (mice [1]; [6]): 0.75 µmol/kg
- Solubility (water-soluble) [2]: No
- ED50 (mice [3]; [7]): 25.8 µmol/kg
- ED50 (mice [4]; [8]): 8.19 µmol/kg

Molecule: CC1=CC[C@@H]2[C@@H](C1)c1c(O)cc(C(C)(C)CCCCC(=O)NN3CCOCC3)cc1OC2(C)C [O-2544, N-(Morpholin-1-yl)-carboxamido]
- EC50 (human CB1 receptor; CB1 EC50, [35S]GTPγS binding): 39.7 ± 11.4 nM
- Emax (human CB1 receptor; [5]): 116 ± 3.71%
- ED50 (mice [1]; [6]): 0.48 µmol/kg
- Solubility (water-soluble) [2]: No
- Water solubility of the hydrochloride salt [2]: none of the HCl salts was water-soluble
- ED50 (mice [3]; [7]): 0.63 µmol/kg
- ED50 (mice [4]; [8]): 0.25 µmol/kg

Molecule: CC1=CC[C@@H]2[C@@H](C1)c1c(O)cc(C(C)(C)CCCCn3ccnc3)cc1OC2(C)C [O-2545, Imidazol-1-yl]
- EC50 (human CB1 receptor; CB1 EC50, [35S]GTPγS binding): 29.3 nM and 4.57 nM
- ED50 (mice [1]; figure legends, mice, i.v., saline, read-out: ED50 after i.v. administration, tail-flick response): 0.16 µmol/kg
- ED50 (mice [1]; [6]): 0.07 µmol/kg
- ED50 (mice [1]; [9]): 0.16 µmol/kg
- Analgesia in the tail-flick procedure (mice [1]; oral 10 mg/kg, at two hrs, mean±sem): 85±11%
- ED50 (mice [3]; figure legends, i.v., saline, read-out: ED50 after i.v. administration, relative immobility): 0.14 µmol/kg
- ED50 (mice [3]; [7]): 0.13 µmol/kg
- ED50 (mice [3]; [10]): 0.14 µmol/kg
- ED50 (mice [4]; figure legends, i.v., saline, read-out: ED50 after i.v. administration, rectal temperature): 0.29 µmol/kg
- ED50 (mice [4]; [8]): 0.04 µmol/kg
- ED50 (mice [4]; [11]): 0.29 µmol/kg

Molecule: CC1=CC[C@@H]2[C@@H](C1)c1c(O)cc(C(C)(C)CCCCn3ccnc3C)cc1OC2(C)C [O-2651, 2-Methyl-imidazol-1-y1]
- EC50 (human CB1 receptor; CB1 EC50, [35S]GTPγS binding): 82.9 ± 45.7 nM
- Emax (human CB1 receptor; [5]): 33.4 ± 3.41%
- ED50 (mice [1]; [9]): 1.75 µmol/kg
- Solubility (water-soluble) [2]: Yes
- ED50 (mice [3]; [10]): 4.29 µmol/kg
- ED50 (mice [4]; [11]): 3.58 µmol/kg

Molecule: CC1=CC[C@@H]2[C@@H](C1)c1c(O)cc(C(C)(C)CCCCc3ncc[nH]3)cc1OC2(C)C [O-2737, 1H-Imidazol-2-yl]
- ED50 (mice [1]; [6]): > 24.5 µmol/kg
- ED50 (mice [1]; [9]): > 2.2 µmol/kg
- Solubility (water-soluble) [2]: Yes
- ED50 (mice [3]; [7]): > 24.5 µmol/kg
- ED50 (mice [3]; [10]): > 2.2 µmol/kg
- ED50 (mice [4]; [8]): > 24.5 µmol/kg
- ED50 (mice [4]; [11]): > 2.2 µmol/kg
